Reference: paper PMC9424906 (Frontiers in Pharmacology, 2022)
In brackets after ≈: the same amount, converted by molar mass. Entries after “also recorded” stand apart in the source; their conditions may differ.

Experiments:
[1] = target: T1, CNT3 (Homo sapiens, UniProt Q9HAS3); test: Nucleoside transporter uptake, CNT3-transfected MDCK cells; type: in vitro ADME
T1 construct: expressed in transfected cells; host or cells: MDCK-II
Description: (§1) Each condition was run in triplicate.

[2] = physchem; type: physicochemical; conditions: pH 7.4, aqueous buffer, kinetic from dmso stock
Procedure: Kinetic aqueous solubility was determined at NCATS using Pion’s patented µSOL assay as described previously ([Sun et al., 2019]).

[3] = target: T2, BCRP (Homo sapiens, UniProt Q9UNQ0); test: Bidirectional transport in MDCK-BCRP monolayers; type: in vitro ADME; conditions: dog, MDCK-BCRP, 5 µM
T2 construct: host or cells: MDCK (BCRP-MDCK)
T2 sequence (Q9UNQ0 1-655): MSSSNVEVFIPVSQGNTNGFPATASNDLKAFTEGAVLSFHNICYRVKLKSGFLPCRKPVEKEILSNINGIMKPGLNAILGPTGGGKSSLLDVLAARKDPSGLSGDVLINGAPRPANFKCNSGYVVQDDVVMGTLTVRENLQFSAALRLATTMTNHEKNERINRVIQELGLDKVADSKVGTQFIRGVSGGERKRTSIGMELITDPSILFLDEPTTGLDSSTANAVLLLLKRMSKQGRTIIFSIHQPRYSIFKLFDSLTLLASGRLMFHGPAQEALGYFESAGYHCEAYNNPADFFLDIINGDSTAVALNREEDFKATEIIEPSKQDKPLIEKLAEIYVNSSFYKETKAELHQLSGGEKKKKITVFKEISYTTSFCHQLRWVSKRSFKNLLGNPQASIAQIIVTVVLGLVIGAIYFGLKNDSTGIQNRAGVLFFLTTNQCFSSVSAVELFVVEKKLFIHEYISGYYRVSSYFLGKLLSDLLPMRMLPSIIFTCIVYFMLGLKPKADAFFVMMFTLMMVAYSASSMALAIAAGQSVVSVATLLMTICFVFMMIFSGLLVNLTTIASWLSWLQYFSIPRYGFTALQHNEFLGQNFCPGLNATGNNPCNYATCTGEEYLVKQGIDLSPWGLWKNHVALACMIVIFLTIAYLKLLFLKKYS
Procedure: Caco-2 (American Type Culture Collection), MDR1-MDCK (NIH), and BCRP-MDCK (transfected by Absorption Systems) cell monolayers were grown to confluence on collagen-coated, microporous membranes in 12-well assay plates. Caco-2 cells were cultured for 27 days, MDCK-MDR1 and MDCK-BCRP cells were cultured for 8 days prior to experiments. […] The experiment was carried out in Hanks’ balanced salt solution (HBSS) containing 10 mM HEPES and 15 mM glucose at pH 7.4. HBSS in the receiver chamber also contained 1% bovine serum albumin. Cells were first pre-incubated for 0.5 h in HBSS with or without the specific inhibitor (1 µM valspodar or 0.5 µM Ko143 for MDR1 and BCRP, respectively). […] Cell monolayers were dosed on the apical side (A to B) or basolateral side (B to A) and incubated at 37°C with 5% CO2 in a humidified incubator. Samples were taken from the donor and receiver chambers at 2 h. Each experiment was performed in duplicate. All samples were assayed by LC-MS/MS. The apparent permeability (Papp) and percent recovery were calculated as described previously ([Katoh et al., 2006]; [Xia et al., 2006]; [Li et al., 2008]).

[4] = test system: OATP1B3; conditions: cited from earlier work
[5] = target: T3, CNT1 (Homo sapiens, UniProt O00337); test: Nucleoside transporter uptake, CNT1-transfected MDCK cells; type: in vitro ADME
T3 construct: expressed in transfected cells; host or cells: MDCK-II
T3 sequence (O00337 1-649): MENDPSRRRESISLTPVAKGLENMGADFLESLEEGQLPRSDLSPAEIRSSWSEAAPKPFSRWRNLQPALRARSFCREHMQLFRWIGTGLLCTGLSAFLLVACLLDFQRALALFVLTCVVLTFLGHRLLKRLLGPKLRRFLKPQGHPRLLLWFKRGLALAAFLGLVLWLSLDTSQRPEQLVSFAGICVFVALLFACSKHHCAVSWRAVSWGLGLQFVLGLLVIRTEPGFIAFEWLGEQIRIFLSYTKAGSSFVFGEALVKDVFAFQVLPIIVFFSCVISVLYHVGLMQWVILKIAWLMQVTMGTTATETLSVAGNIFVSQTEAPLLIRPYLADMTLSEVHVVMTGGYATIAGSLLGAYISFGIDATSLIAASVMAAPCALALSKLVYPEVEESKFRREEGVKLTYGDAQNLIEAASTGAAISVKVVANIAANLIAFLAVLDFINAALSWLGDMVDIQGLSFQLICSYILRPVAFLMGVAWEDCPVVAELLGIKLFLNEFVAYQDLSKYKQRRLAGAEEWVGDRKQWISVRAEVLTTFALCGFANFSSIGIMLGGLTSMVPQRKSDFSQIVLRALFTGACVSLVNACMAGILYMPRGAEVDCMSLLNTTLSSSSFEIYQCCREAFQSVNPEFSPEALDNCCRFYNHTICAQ
Description: as §1

[6] = pH 7.4, with Ko143 0.5 µM, 0.5 µM Ko143

T1 sequence (Q9HAS3 whole entry): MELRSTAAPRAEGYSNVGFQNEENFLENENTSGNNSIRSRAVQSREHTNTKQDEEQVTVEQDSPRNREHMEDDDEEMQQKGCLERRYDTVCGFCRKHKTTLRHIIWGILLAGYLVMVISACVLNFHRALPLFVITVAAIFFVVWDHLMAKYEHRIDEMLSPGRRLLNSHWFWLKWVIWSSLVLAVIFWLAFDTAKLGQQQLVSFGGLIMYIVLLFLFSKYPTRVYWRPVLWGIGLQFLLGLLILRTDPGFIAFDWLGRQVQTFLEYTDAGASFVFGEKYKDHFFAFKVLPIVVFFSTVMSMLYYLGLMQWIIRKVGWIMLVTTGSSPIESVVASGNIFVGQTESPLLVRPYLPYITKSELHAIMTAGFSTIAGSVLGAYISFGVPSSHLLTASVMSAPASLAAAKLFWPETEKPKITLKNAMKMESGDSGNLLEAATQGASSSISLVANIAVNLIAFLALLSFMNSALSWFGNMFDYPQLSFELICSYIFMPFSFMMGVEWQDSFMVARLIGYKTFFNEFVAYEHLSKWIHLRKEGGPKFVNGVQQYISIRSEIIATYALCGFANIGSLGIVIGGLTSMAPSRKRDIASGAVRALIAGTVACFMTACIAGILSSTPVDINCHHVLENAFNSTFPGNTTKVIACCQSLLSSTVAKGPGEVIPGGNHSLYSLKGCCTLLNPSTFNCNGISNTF

N#C[C@@]1(c2ccc3c(N)ncnn23)O[C@H](CO)[C@@H](O)[C@H]1O [GS-441524]
Substrate of CNT3 [1]: substrate | Inhibition of uptake by reference inhibitor ([1]; CNT3-transfected cells, reference inhibitor adenosine, 30 µM GS-441524): 98.9% | solubility kinetic [2]: 42 µg/mL (≈ 144 µM) | Papp A→B at 2 h, 5 µM [3, 6]: < 0.198 ×10⁻⁶ cm/s | Papp B→A at 2 h, 5 µM [3, 6]: < 0.281 ×10⁻⁶ cm/s | Papp A→B at 2 h, 5 µM ([3]; pH 7.4, no inhibitor): < 0.197 ×10⁻⁶ cm/s | Papp B→A at 2 h, 5 µM ([3]; pH 7.4, no inhibitor): 0.385 ×10⁻⁶ cm/s | Substrate of OATP1B3 [4]: not a substrate | Substrate of CNT1 [5]: not a substrate; also recorded: unlikely to be a substrate | Transporter uptake rate ([5]; CNT1, 10 μM, LOQ = 0.222 pmol/min/cm^2): BLQ | Difference in uptake compared to control cells ([5]; CNT1-transfected cells): less than 2 fold
